The conditions of data set [1]: Coulter N4MD submicron analyzer; Lee et al., 1996; cited from earlier work.
A further data set has as its system HT1080 and 293 cells. Kind of data set: Effect of chloroquine on transfection (FIG. 9). The class given is cell-based, human. The settings on record: presence or absence of chloroquine. As to the method: FIG. 9 illustrates the effect of chloroquine on transfection with RZ145-1 in (A) 293 cells and (B) HT1080 cells. The cells were transfected in the presence (black bar) or absence (stippled bar) of 100 uM chloroquine. Cells were lysed 48 hours post transfection and luciferase activity and total protein content were measured.
To determine whether chloroquine affected transfection mediated by polycationic agents of the present invention, HT1080 and 293 cells were transfected using RZ145-1 in the presence and absence of chloroquine. As a control, the same cell lines were transfected with polylysine both in the presence and absence of chloroquine. […] In contrast, polylysine-mediated transfection in the absence of chloroquine was 100-fold lower than polylysine mediated transfection in the presence of chloroquine.

This is an account of results in patent US7462592B2, “Compositions and methods for polynucleotide delivery” (Novartis Vaccines and Diagnostics, Inc., priority 1996, dated 2008).

As for polylysine [reference compound], the “mean diameter of particles of condensed polynucleotide” value in data set [1] is 50-200 nm. The “transfection in the absence of chloroquine relative to presence of chloroquine, fold lower” value in the data set with HT1080 and 293 cells is 100 fold.
